From patent US6887878B2, “KMST isoeugenol derivatives and pharmaceutical activity” (Ing-Jun Chen, priority 2003, dated 2005)

Experiments:
[1] = test system: phenylephrine-induced contractions in rat thoracic aorta; test: LPS-induced vascular hyporeactivity: phenylephrine-induced contractions in rat thoracic aorta; type: in vivo, Wistar rat; settings: pD2 to phenylephrine
[2] = test system: lipid peroxidation in rat brain homogenate; test: lipid peroxidation initiated by Fe2+-ascorbic acid in rat brain homogenates (TBARS); type: biochemical; settings: rat brain homogenates; read-out: IC50 inhibiting lipid peroxidation initiated by Fe2+-ascorbic acid
Procedure: Rat brain homogenate was made in 0.9% saline containing 10 mg tissue/ml. The rates of membrane lipid peroxidation were measured by the formation of thiobarbituric acid (TBA)-reactive substance (TBARS). Rat brain homogenates (1 ml) were incubated at 37° C. for 5 min with 10 μl of test compound or vehicle. […] After 30 min of incubation, the reaction was stopped by adding 0.1 ml of 0.2% BHT. TBA reagent was then added and the mixture was heated for 30 min in a boiling water bath. […] The amount of TBARS was quantified using the linear regression obtained from malondialdehyde (MDA) standards.

[3] = test system: IL-1β, IL-6, IFN-γ and TNF-α; test: LPS-induced plasma cytokine immunoreactivity; type: in vivo, rat
Procedure: (§1) In brief, Wistar rats weighing 250-300 g were anesthetized with pentobarbital sodium (50 mg kg^−1, i.p.). Following tracheal cannulation, systemic arterial BP and HR were recorded from the femoral artery by a pressure transducer (model P10EZ; Spectramed, Oxnard, Calif., U.S.A.) connected to a recorder (GOULD, Valley View, Ohio, Model P50). Body temperature was maintained at 37° C. by an electric heating pad. A femoral vein was cannulated for intravenous injection of drugs and LPS (10 mg kg^−1).
Blood was collected from venous cannula, injected into ice-cold heparinized Eppendorf tubes and centrifuged at 1500 rpm for 10 min at 4° C. Plasma supernatant was stored at −70° C. until analyzed. Solid phase enzyme immunoassay that specifically detects murine IL-1β, IL-6, IFN-γ and TNF-α was used with a detection limit of >10 pg/ml (Endogen, U.S.A). Pre-treatment with KMST and other agents was performed 15 minutes before intravenous injection of LPS. Blood was collected from venous cannula. Blood glucose was measured with a glucose test strip (Glucotide, Bayer, U.S.A) at 1, 3 and 5 hours.

[4] = test system: epinephrine-induced human platelet aggregation; settings: Mustonen et al., 2000; read-out: estimated IC50 to inhibit epinephrine-induced platelet aggregation; cited from earlier work
anesthetized rats [5] = test: LPS-induced hypotension; type: in vivo, Wistar rat; settings: pretreatment, intravenous LPS
Procedure: as §1

anesthetized rats [6] = test: intra-cisternal injection and NTS microinjection, BP and HR; type: in vivo, rat
Procedure: Intra-cisternal injections of KMST (0.3, 0.03 μmol), yohimbine [0.03 μmol), and clonidine (38 pmol), were performed in rats as described by Duan et al (1987). Briefly, rats weighing 250-300 g were anaesthetized with pentobarbital sodium (50 mg kg^−1, i.p.) and mounted in a David-Kopf stereotaxic instrument (Yeh J L. et al., Brain. Res. Bull., 30:641-648, 1993). The calvarium was exposed and a 1 mm diameter trephine hole was drilled 1.8 mm lateral to the coronary and 1.5 mm posterior to the sagittal sutures. A cannula (0.7 mm O.D.) connected to a Hamilton syringe (RN-705, 5051) by PE-50 was advanced 4.7 mm into the brain using the electrode carrier.
Rats were anesthetized and placed in a David-Kopf stereotaxic instrument. The cerebellum was exposed after removing the skin and occipital bone. The NTS coordinates were (reference to lambda) P 5-6 mm, L/R 0.5-1 mm, depth 6-7.5 mm (Wu et al., 1994). NTS injection sites were confirmed by decreasing BP and HR following micro-injection of 1% L-glutamate. […] Pre-treatment with clonidine was performed 15 min before administration of test agents. At the end of experiments, the animals were sacrificed. The brain was removed and sectioned for histological confirmation of the drug application site.

[7] = agent given after LPS injection (1 hr)
[8] = agent given before LPS injection (30 min)

COC(=O)[C@@H]1[C@H]2C[C@H]3c4[nH]c5ccccc5c4CCN3C[C@@H]2CC[C@@H]1O [Yohimbine]
pD2 at 3rd hr [1, 7]: 6.12 ± 0.14 | pD2 at 5th hr [1, 7]: 5.13 ± 0.26 | pD2 at 3rd hr [1, 8]: 6.73 ± 0.33 | pD2 at 5th hr [1, 8]: 3.44 ± 0.22 | IC50 [2]: 11.1 ± 0.35 µM | LPS-induced elevations of IL-1β, IL-6, IFN-γ and TNF-α levels ([3]; 1 mg kg−1, i.v., pretreatment): reduced only IL-1β and TNF-α | LPS-induced production of IFN-γ ([3]; 1 hour after LPS administration): insignificantly enhanced | IC50 [4]: 0.98 µM | aortic hyporeactivity and second prolonged hypotensive reaction induced by LPS (anesthetized rats [5]): inhibited | BP and HR after intra-cisternal injection and NTS microinjection (anesthetized rats [6]; central administration): increased BP and HR | clonidine-induced bradycardia (anesthetized rats [6]; low dose (0.03 μmol)): did not inhibit | clonidine-induced hypotension (anesthetized rats [6]; low dose (0.03 μmol)): reduced
